{
  "source": "paper PMC8347595",
  "about": "“N-Skatyltryptamines—Dual 5-HT6R/D2R Ligands with Antipsychotic and Procognitive Potential” (Molecules, 2021)",
  "key": {"D2R [1]": {"target": "T1, D2R (Homo sapiens, UniProt P14416)", "T1 sequence (P14416 whole entry)": "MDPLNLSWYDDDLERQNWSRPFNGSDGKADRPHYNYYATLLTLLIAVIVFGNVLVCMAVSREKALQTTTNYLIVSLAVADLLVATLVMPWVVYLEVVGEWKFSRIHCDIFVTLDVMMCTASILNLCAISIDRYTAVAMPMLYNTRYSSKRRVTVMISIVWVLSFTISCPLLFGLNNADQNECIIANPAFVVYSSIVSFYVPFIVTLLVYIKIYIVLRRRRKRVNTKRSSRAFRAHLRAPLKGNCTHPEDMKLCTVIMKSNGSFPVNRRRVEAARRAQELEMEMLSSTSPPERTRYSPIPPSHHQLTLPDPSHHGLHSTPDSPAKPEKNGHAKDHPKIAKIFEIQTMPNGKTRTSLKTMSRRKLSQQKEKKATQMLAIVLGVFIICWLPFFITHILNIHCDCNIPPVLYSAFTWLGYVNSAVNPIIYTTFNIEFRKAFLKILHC", "assay": "Radioligand binding assay, [3H]-raclopride displacement"}, "Male CD1 mice [2]": {"test_system": "Male CD1 mice", "assay": "Novel object recognition (NOR) test, MK-801-induced memory impairment", "type": "in vivo", "conditions": "i.p., MK-801 0.3 mg/kg", "method": "(§1) Animals. Male CD1 mice (Charles River, Germany) weighing 20–25 g at the time of arrival were used in behavioral experiments. Animals were kept under standard laboratory conditions (12:12 light: dark cycle, 22 ± 2 °C) with free access to food and water. Animal welfare has been regularly controlled by a veterinarian and animal welfare committee. After two weeks of acclimatization and handling, the experiments began. Experimental groups consisted of four to 10 animals, depending on the procedure. Drugs were administered intraperitoneally (i.p.) at a volume of 10 mL/kg. Experimental assessments were performed by an observer who was blinded to the treatment conditions. All procedures were conducted in accordance with the European Communities Council Directive of 22 September 2010 (2010/63/EU) and Polish legislation acts concerning animal experimentation and were approved by the II Local Ethics Committee by the Maj Institute of Pharmacology, Polish Academy of Sciences in Krakow (272/2019).\n(§2) Drugs. MK-801 was purchased from Tocris Bioscience, Bristol, UK. MK-801 was dissolved in 0.9% NaCl. Compounds 15 and 18 were dissolved in 0.9% NaCl. All compounds were administered intraperitoneally (i.p.) in a volume of 10 mL/kg. Vehicle-treated animals received appropriate solvents. Vehicle was administered to animals in any case when drug administration was omitted (e.g., control or MK-801-treated groups).\nThis procedure was adapted from Nilsson et al. (2007) and performed as described in a previous paper by Cieslik et al. (2018). Habituation, training, and test trials were performed in a black plastic rectangular arena (40 × 30 × 35 cm) illuminated with a light intensity of 335 lux. During the habituation trial (two consecutive days), each animal was allowed to explore the arena for 10 min. The next day, during the training trial (T1), mice were placed in the arena and presented with two identical objects (red glass cylinder; 6.5 cm in diameter and 4.5 cm high) for 5 min. After 1 h, animals were placed back into the arena for a 5 min test trial, during which one of the previously presented familiar objects was replaced with a novel object (a transparent glass elongated sphere-like object with an orange cap; 5.5 cm in diameter and 8.5 cm high). Time spent exploring (i.e., sniffing or touching) the familiar (Tfamiliar) and novel (Tnovel) objects was measured by a trained observer, and the recognition index [%] was calculated for each mouse [(Tnovel − Tfamiliar)/(Tfamiliar + Tnovel)] × 100. Compounds were administered 30 min before MK-801 (0.3 mg/kg), which was administered 30 min before training trial."}, "HepG2 cell line": {"test_system": "HepG2 cell line", "assay": "Hepatotoxicity assay, HepG2 viability", "type": "cell-based", "conditions": "1 μM, 72 h", "method": "To estimate the hepatotoxicity of compounds, the hepatoma HepG2 (ATCC® HB-8065TM) cell line was used according to previously described protocols. The CellTiter 96® AQueous Non-Radioactive Cell Proliferation Assay was obtained from Promega (Madison, WI, USA). The compounds were tested in quadruplicate at four concentrations (1–100 µM) for 72 h."}, "Male CD1 mice [3]": {"test_system": "Male CD1 mice", "assay": "MK-801-induced hyperactivity in mice", "type": "in vivo", "conditions": "i.p.; for reversal of MK-801-elevated activity: MK-801 0.35 mg/kg, 15: 0.5, 1, 3 mg/kg, 18: 0.05-3 mg/kg", "method": "as §1, §2\nThe locomotor activity was recorded individually for each animal in locomotor activity cages (according to Rorick-Kehn et al., 2007a,b), with modifications (Wieronska et al., 2012). The mice were placed individually into activity cages (13 × 23 × 15 cm; Opto-M3; Columbus Instruments) for an acclimatization period of 30 min; then they were injected i.p. with compound 15 (0.5, 1, 3 mg/kg) or compound 18 (0.05, 0.1, 0.5, 1, 3 mg/kg) and placed again in the same cages. After 30 min, all of the mice were injected i.p. with MK-801 at 0.35 mg/kg and once again placed in the same cage. From then on, the ambulation scores were counted for 60 min. All of the groups were compared with the MK-801 control group. […]"}, "D2R [4]": {"target": "T1, D2R", "assay": "D2R functional assay, antagonist mode (cAMP, HEK293 cells)", "type": "cell-based", "set-up": "expressed in transfected cells", "method": "The supernatant was aspirated, and the cell pellet was resuspended in stimulation buffer (1 × HBSS, 5 mM HEPES, 0.5 mM IBMX, 0.1% BSA).\nThe functional properties of compounds were evaluated using the LANCE Ultra cAMP Detection Kit (PerkinElmer). D2 receptors in HEK293 cells are coupled to Gi subtype and decreased cAMP production. […] Each compound was tested in triplicate at eight concentrations (10^−11–10^−4 M).\nFor quantification of cAMP levels, cells (5 µL) were incubated with 5 µL mixture of compounds (tested ligand and forskolin with 100 nM quinpirole for antagonist binding mode) for 30 min at room temperature in 384-well white opaque microtiter plate (PerkinElmer). After incubation, the reaction was stopped and cells were lysed by the addition of 10 µL working solution (5 µL Eu-cAMP and 5 µL ULight-anti-cAMP). The assay plate was incubated for 1 h at room temperature. Time-resolved fluorescence resonance energy transfer (TR-FRET) signal was detected by an Infinite M1000 Pro (Tecan) using instrument settings from the LANCE Ultra cAMP Detection Kit manual."}, "5-HT7R": {"target": "5-HT7R (Homo sapiens, UniProt P34969)", "sequence (P34969 1-432)": "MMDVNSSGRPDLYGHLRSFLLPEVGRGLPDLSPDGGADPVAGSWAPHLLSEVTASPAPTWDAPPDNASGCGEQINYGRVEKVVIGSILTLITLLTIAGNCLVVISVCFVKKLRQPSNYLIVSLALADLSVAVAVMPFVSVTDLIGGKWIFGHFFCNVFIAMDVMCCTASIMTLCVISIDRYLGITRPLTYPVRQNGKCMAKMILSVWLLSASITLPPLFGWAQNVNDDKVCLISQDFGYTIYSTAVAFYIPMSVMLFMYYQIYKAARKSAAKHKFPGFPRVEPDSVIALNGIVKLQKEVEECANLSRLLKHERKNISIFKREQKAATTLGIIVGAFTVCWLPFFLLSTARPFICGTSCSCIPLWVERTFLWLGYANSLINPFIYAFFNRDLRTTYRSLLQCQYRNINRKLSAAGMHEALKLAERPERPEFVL", "assay": "Radioligand binding assay, [3H]-5-CT displacement"}, "5-HT6R": {"target": "5-HT6R (Homo sapiens, UniProt P50406)", "sequence (P50406 whole entry)": "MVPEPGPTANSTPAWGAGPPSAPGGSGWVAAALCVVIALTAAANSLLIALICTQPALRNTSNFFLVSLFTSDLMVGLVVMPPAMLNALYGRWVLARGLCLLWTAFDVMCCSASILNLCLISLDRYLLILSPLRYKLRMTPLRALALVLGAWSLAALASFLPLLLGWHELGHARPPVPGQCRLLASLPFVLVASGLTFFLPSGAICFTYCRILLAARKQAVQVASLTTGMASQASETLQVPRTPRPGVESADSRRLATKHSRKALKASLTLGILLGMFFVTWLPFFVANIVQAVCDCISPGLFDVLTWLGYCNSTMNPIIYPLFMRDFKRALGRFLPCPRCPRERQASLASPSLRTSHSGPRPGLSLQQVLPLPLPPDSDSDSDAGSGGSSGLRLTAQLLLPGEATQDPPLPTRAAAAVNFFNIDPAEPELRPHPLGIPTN", "assay": "Radioligand binding assay, [3H]-LSD displacement"}, "[5]": {"assay": "Metabolic stability, incubation with mouse liver microsomes", "type": "in vitro ADME", "conditions": "MLMs, 50 µM, 2 h", "method": "The murine liver microsomes (MLMs) were purchased from Sigma-Aldrich (St. Louis, MO, USA). To determine metabolic pathways, the tested compounds (50 µM) were incubated with 100 mM Tris-HCl buffer at 37 °C with MLMs (1 mg/mL) and NADPH Regeneration System for 2 h. Reactions were quenched with cold, pure methanol and mixtures were centrifuged 14,000 g for 15 min. The supernatants were analyzed using LCMS. The additional MS ion fragmentation of the product and the substrate were performed to determine the most probable structure of the metabolite."}},
  "note": "Read-outs that look alike come from different tables or passages of the source.",
  "data": [
    {"compound": "Brc1cccc2c(CNCCc3c[nH]c4ccccc34)c[nH]c12", "note": "[Compound 18]", "values": [
      {"measurement": "Ki", "setting": "D2R [1]; Ki D2, Figure 8", "value": 55, "unit": "nM"},
      {"measurement": "Ki", "setting": "D2R [1]; pKi D2, Table 1", "value": 55, "unit": "nM"},
      {"measurement": "reversal of memory impairment induced by MK-801 in NOR test", "setting": "Male CD1 mice [2]; 0.1 mg/kg", "value": "reversed memory impairment"},
      {"measurement": "reversal of memory impairment induced by MK-801 in NOR test", "setting": "Male CD1 mice [2]; 0.5 mg/kg", "value": "reversed memory impairment"},
      {"measurement": "reversal of memory impairment induced by MK-801 in NOR test", "setting": "Male CD1 mice [2]; 1 mg/kg", "value": "reversed memory impairment"},
      {"measurement": "effect on HepG2 proliferation in words", "setting": "HepG2 cell line", "value": "a proliferative effect was observed, but it was not statistically significant"},
      {"measurement": "reversal of MK-801-elevated activity", "setting": "Male CD1 mice [3]", "value": "did not reverse the locomotor activity elevated by the administration of MK-801"},
      {"measurement": "Kb", "setting": "D2R [4]", "value": 167, "unit": "nM"},
      {"measurement": "Ki", "setting": "5-HT7R", "value": 1320, "unit": "nM"},
      {"measurement": "Ki", "setting": "5-HT6R; Ki 5-HT6, Figure 8", "value": 449, "unit": "nM"},
      {"measurement": "Ki", "setting": "5-HT6R; pKi 5-HT6, Table 1", "value": 447, "unit": "nM"},
      {"measurement": "Metabolic Pathway, metabolite M1", "setting": "[5]", "value": "hydroxylation hydroxylation"},
      {"measurement": "Metabolic Pathway, metabolite M2", "setting": "[5]", "value": "hydroxylation hydroxylation"}
    ]},
    {"compound": "Brc1ccc2c(CNCCc3c[nH]c4ccccc34)c[nH]c2c1", "note": "[Compound 15]", "values": [
      {"measurement": "Ki", "setting": "D2R [1]; Ki D2, Figure 8", "value": 290, "unit": "nM"},
      {"measurement": "Ki", "setting": "D2R [1]; pKi D2, Table 1", "value": 288, "unit": "nM"},
      {"measurement": "reversal of memory impairment induced by MK-801 in NOR test", "setting": "Male CD1 mice [2]; 0.5 mg/kg", "value": "reversed memory impairment"},
      {"measurement": "reversal of memory impairment induced by MK-801 in NOR test", "setting": "Male CD1 mice [2]; 1 mg/kg", "value": "reversed memory impairment"},
      {"measurement": "effect on HepG2 proliferation in words", "setting": "HepG2 cell line", "value": "a proliferative effect was observed, but it was not statistically significant"},
      {"measurement": "exacerbation of MK-801 hyperactivity", "setting": "Male CD1 mice [3]; 3 mg/kg", "value": "not statistically significant"},
      {"measurement": "reversal of MK-801-elevated activity", "setting": "Male CD1 mice [3]", "value": "did not reverse the locomotor activity elevated by the administration of MK-801"},
      {"measurement": "Kb", "setting": "D2R [4]; antagonistic mode, 100 nM quinpirole, read-out: D2 Kb", "value": 109, "unit": "nM"},
      {"measurement": "EC50", "setting": "D2R [4]; read-out: EC50 (D2 receptor, antagonistic function)", "value": 109, "unit": "nM"},
      {"measurement": "Ki", "setting": "5-HT7R", "value": 4680, "unit": "nM"},
      {"measurement": "Ki", "setting": "5-HT6R; Ki 5-HT6, Figure 8", "value": 102, "unit": "nM"},
      {"measurement": "Ki", "setting": "5-HT6R; pKi 5-HT6, Table 1", "value": 102, "unit": "nM"},
      {"measurement": "Metabolic Pathway, metabolite M1", "setting": "[5]", "value": "hydroxylation hydroxylation"},
      {"measurement": "Metabolic Pathway, metabolite M2", "setting": "[5]", "value": "hydroxylation hydroxylation"}
    ]}
  ]
}
